Laboratory results from article PMC2994877, “A Full Pharmacological Analysis of the Three Turkey β-Adrenoceptors and Comparison with the Human β-Adrenoceptors” (PLoS ONE, 2010).

Biological target: T1, turkey β3C-adrenoceptor (tβ3C) (Meleagris gallopavo, UniProt A0A803YLI8)
Assay: 3H-CGP12177 whole cell binding, CHO tβ3C cells
Details: not given

T1 sequence (A0A803YLI8 entry or part of it): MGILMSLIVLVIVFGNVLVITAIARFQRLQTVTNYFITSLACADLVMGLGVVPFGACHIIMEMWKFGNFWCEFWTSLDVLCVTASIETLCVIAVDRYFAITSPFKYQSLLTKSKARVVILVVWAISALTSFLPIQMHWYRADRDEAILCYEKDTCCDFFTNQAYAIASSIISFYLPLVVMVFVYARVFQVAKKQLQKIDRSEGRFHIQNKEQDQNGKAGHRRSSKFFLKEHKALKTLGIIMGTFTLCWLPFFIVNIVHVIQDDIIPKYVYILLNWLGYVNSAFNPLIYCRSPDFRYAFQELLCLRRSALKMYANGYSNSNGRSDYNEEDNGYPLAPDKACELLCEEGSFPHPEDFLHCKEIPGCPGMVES

SMILES | Kd [nM]
NC[C@H](O)c1ccc(O)c(O)c1 [Noradrenaline] | 11500
COc1ccc(CC(C)NCC(O)c2ccc(O)c(NC=O)c2)cc1 (stereo not drawn) [Formoterol] | 11
CC(C)NCC(O)c1ccc(O)c(O)c1 (stereo not drawn) [Isoprenaline] | 316
CC(C)(C)NCC(O)c1ccccc1Cl (stereo not drawn) [Tulobuterol] | 229
COc1ccc(OC)c(C(O)C(C)NC(C)(C)C)c1 (stereo not drawn) [Butoxamine] | 1020
CC(Cc1ccc(O)cc1)NCC(O)c1cc(O)cc(O)c1 (stereo not drawn) [Fenoterol] | 204
CNC[C@H](O)c1ccc(O)c(O)c1 [Adrenaline] | 1550
CC(C)(Cc1c[nH]c2ccccc12)NCC(O)COc1ccccc1C#N (stereo not drawn) [Bucindolol] | 0.191
CC(CCc1ccc(O)cc1)NCC(O)c1ccc(O)cc1 (stereo not drawn) [Ractopamine] | 224
OCc1cc(C(O)CNCCCCCCOCCCCc2ccccc2)ccc1O (stereo not drawn) [Salmeterol] | 3.16
CC(C)(Cc1ccccc1)NCC(O)c1ccc(O)c(NS(C)(=O)=O)c1 (stereo not drawn) [zinterol] | 24
CC(C)(C)NCC(O)c1ccc(O)c(CO)c1 (stereo not drawn) [Salbutamol] | 724
CC(C)(C)NCC(O)c1cc(Cl)c(N)c(Cl)c1 (stereo not drawn) [Clenbuterol] | 41.7

Same assay, conditions: competition with 3H-CGP12177, whole cells, CHO tβ3C; given as log KD; mean ± s.e.m.

SMILES | Log KD
C[C@H](Cc1ccc(OCC(=O)O)cc1)NC[C@H](O)c1cccc(Cl)c1 [BRL37344] | −6.28±0.06

Biological target: T2, turkey β4C-adrenoceptor (tβ4C) (Meleagris gallopavo, UniProt P43141)
T2 construct: expressed in transfected cells
T2 sequence (P43141 whole entry): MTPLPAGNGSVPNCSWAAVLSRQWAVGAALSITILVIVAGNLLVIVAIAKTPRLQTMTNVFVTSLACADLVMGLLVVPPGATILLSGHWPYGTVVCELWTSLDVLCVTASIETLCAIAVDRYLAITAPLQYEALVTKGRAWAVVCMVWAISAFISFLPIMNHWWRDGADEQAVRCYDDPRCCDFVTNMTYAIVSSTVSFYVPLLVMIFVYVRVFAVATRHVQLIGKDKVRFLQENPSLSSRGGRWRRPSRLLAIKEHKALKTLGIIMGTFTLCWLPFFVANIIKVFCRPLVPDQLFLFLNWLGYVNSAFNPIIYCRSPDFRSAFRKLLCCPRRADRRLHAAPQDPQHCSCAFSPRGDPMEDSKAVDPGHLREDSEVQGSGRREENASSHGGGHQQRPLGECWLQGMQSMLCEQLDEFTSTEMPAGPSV
Assay: cell-based
Type: binding
Details: not given

SMILES | Kd [nM]
COc1ccc(CC(C)NCC(O)c2ccc(O)c(NC=O)c2)cc1 (stereo not drawn) [Formoterol] | 20
CC(Cc1ccc(O)cc1)NCC(O)c1cc(O)cc(O)c1 (stereo not drawn) [Fenoterol] | 603
OCc1cc(C(O)CNCCCCCCOCCCCc2ccccc2)ccc1O (stereo not drawn) [Salmeterol] | 81.3
CC(C)(C)NCC(O)c1cc(Cl)c(N)c(Cl)c1 (stereo not drawn) [Clenbuterol] | 363

Same assay, conditions: competition with 3H-CGP12177, whole cells, CHO tβ4C; given as log KD; mean ± s.e.m.

SMILES | Log KD
C[C@H](Cc1ccc(OCC(=O)O)cc1)NC[C@H](O)c1cccc(Cl)c1 [BRL37344] | −5.89±0.10

Same assay, conditions: competition with 3H-CGP12177, whole cells, CHO tβ4C; given as log KD; mean ± s.e.m.; read-out: Log KD (converted)

SMILES | Kd [nM]
NC[C@H](O)c1ccc(O)c(O)c1 [Noradrenaline] | 501
CC(C)(C)NCC(O)c1ccccc1Cl (stereo not drawn) [Tulobuterol] | 3470
COc1ccc(OC)c(C(O)C(C)NC(C)(C)C)c1 (stereo not drawn) [Butoxamine] | 12600
CNC[C@H](O)c1ccc(O)c(O)c1 [Adrenaline] | 1700
CC(C)(Cc1c[nH]c2ccccc12)NCC(O)COc1ccccc1C#N (stereo not drawn) [Bucindolol] | 0.389
CC(CCc1ccc(O)cc1)NCC(O)c1ccc(O)cc1 (stereo not drawn) [Ractopamine] | 269
CC(C)(Cc1ccccc1)NCC(O)c1ccc(O)c(NS(C)(=O)=O)c1 (stereo not drawn) [zinterol] | 158
CC(C)(C)NCC(O)c1ccc(O)c(CO)c1 (stereo not drawn) [Salbutamol] | 4370

Biological target: T1, turkey β3C-adrenoceptor (tβ3C)
Assay: CRE-SPAP production, CHO tβ3C cells
Type: cell-based
Details: not given

SMILES | EC50 [nM]
NC[C@H](O)c1ccc(O)c(O)c1 [Noradrenaline] | 417
COc1ccc(CC(C)NCC(O)c2ccc(O)c(NC=O)c2)cc1 (stereo not drawn) [Formoterol] | 0.0447
CC(C)NCC(O)c1ccc(O)c(O)c1 (stereo not drawn) [Isoprenaline] | 26.9
CC(Cc1ccc(O)cc1)NCC(O)c1cc(O)cc(O)c1 (stereo not drawn) [Fenoterol] | 0.832
CNC[C@H](O)c1ccc(O)c(O)c1 [Adrenaline] | 63.1
OCc1cc(C(O)CNCCCCCCOCCCCc2ccccc2)ccc1O (stereo not drawn) [Salmeterol] | 0.0372
CC(C)(C)NCC(O)c1cc(Cl)c(N)c(Cl)c1 (stereo not drawn) [Clenbuterol] | 0.525

Same assay, conditions: CRE-SPAP production, CHO tβ3C cells

SMILES | Log EC50
C[C@H](Cc1ccc(OCC(=O)O)cc1)NC[C@H](O)c1cccc(Cl)c1 [BRL37344] | −7.67±0.04

Same assay, conditions: CRE-SPAP production, CHO tβ3C cells; read-out: Log EC50 (converted)

SMILES | EC50 [nM]
CC(C)(C)NCC(O)c1ccc(O)c(CO)c1 (stereo not drawn) [Salbutamol] | 3.55

Same assay, conditions: CRE-SPAP, % of 10 µM isoprenaline maximum, CHO tβ3C cells

SMILES | % isop max [%]
C[C@H](Cc1ccc(OCC(=O)O)cc1)NC[C@H](O)c1cccc(Cl)c1 [BRL37344] | 88.5±4.2
CC(C)NCC(O)c1ccc(O)c(O)c1 (stereo not drawn) [Isoprenaline] | 100

Same assay, conditions: read-out: % isop max

SMILES | Emax [%]
NC[C@H](O)c1ccc(O)c(O)c1 [Noradrenaline] | 102 ± 3
CNC[C@H](O)c1ccc(O)c(O)c1 [Adrenaline] | 106 ± 2.7
OCc1cc(C(O)CNCCCCCCOCCCCc2ccccc2)ccc1O (stereo not drawn) [Salmeterol] | 96 ± 5.7
CC(C)(C)NCC(O)c1ccc(O)c(CO)c1 (stereo not drawn) [Salbutamol] | 102 ± 3.1
CC(C)(C)NCC(O)c1cc(Cl)c(N)c(Cl)c1 (stereo not drawn) [Clenbuterol] | 97.8 ± 4.4

Biological target: T2, turkey β4C-adrenoceptor (tβ4C)
Assay: cell-based
Type: cell-based
Details: not given
Remark: another data set of the same source

SMILES | EC50 [nM]
COc1ccc(CC(C)NCC(O)c2ccc(O)c(NC=O)c2)cc1 (stereo not drawn) [Formoterol] | 0.166
CC(Cc1ccc(O)cc1)NCC(O)c1cc(O)cc(O)c1 (stereo not drawn) [Fenoterol] | 8.51
OCc1cc(C(O)CNCCCCCCOCCCCc2ccccc2)ccc1O (stereo not drawn) [Salmeterol] | 3.98
CC(C)(C)NCC(O)c1cc(Cl)c(N)c(Cl)c1 (stereo not drawn) [Clenbuterol] | 40.7

Same assay, conditions: CRE-SPAP production, CHO tβ4C cells

SMILES | Log EC50
C[C@H](Cc1ccc(OCC(=O)O)cc1)NC[C@H](O)c1cccc(Cl)c1 [BRL37344] | −7.15±0.07

Same assay, conditions: CRE-SPAP production, CHO tβ4C cells; read-out: Log EC50 (converted)

SMILES | EC50 [nM]
NC[C@H](O)c1ccc(O)c(O)c1 [Noradrenaline] | 81.3
CNC[C@H](O)c1ccc(O)c(O)c1 [Adrenaline] | 191
CC(C)(C)NCC(O)c1ccc(O)c(CO)c1 (stereo not drawn) [Salbutamol] | 42.7

Same assay, conditions: CRE-SPAP, % of 10 µM isoprenaline maximum, CHO tβ4C cells

SMILES | % isop max [%]
C[C@H](Cc1ccc(OCC(=O)O)cc1)NC[C@H](O)c1cccc(Cl)c1 [BRL37344] | 97.1±3.0
NC[C@H](O)c1ccc(O)c(O)c1 [Noradrenaline] | 102.3±2.5
CC(C)NCC(O)c1ccc(O)c(O)c1 (stereo not drawn) [Isoprenaline] | 100
CNC[C@H](O)c1ccc(O)c(O)c1 [Adrenaline] | 99.6±2.7
OCc1cc(C(O)CNCCCCCCOCCCCc2ccccc2)ccc1O (stereo not drawn) [Salmeterol] | 102.5±2.8
CC(C)(C)NCC(O)c1ccc(O)c(CO)c1 (stereo not drawn) [Salbutamol] | 99.9±2.3
CC(C)(C)NCC(O)c1cc(Cl)c(N)c(Cl)c1 (stereo not drawn) [Clenbuterol] | 97.2±1.9

Same assay, conditions: tβ4C

SMILES | CRE-SPAP gene transcription response [fold over basal]
CC(C)NCC(O)c1ccc(O)c(O)c1 (stereo not drawn) [Isoprenaline] | 2.47±0.10

Biological target: Human β1-adrenoceptor
Assay: not given
Set-up: method as in PMID 15655528, PMID 20590599
Details: Human β1, given for comparison; ref 25 and 30; cited from earlier work

SMILES | Log KD
C[C@H](Cc1ccc(OCC(=O)O)cc1)NC[C@H](O)c1cccc(Cl)c1 [BRL37344] | −5.19
NC[C@H](O)c1ccc(O)c(O)c1 [Noradrenaline] | −5.74
COc1ccc(OC)c(C(O)C(C)NC(C)(C)C)c1 (stereo not drawn) [Butoxamine] | −4.85
CC(Cc1ccc(O)cc1)NCC(O)c1cc(O)cc(O)c1 (stereo not drawn) [Fenoterol] | −5.04
CNC[C@H](O)c1ccc(O)c(O)c1 [Adrenaline] | −5.15
CC(C)(Cc1c[nH]c2ccccc12)NCC(O)COc1ccccc1C#N (stereo not drawn) [Bucindolol] | −9.31
CC(CCc1ccc(O)cc1)NCC(O)c1ccc(O)cc1 (stereo not drawn) [Ractopamine] | −6.97
CC(C)(Cc1ccccc1)NCC(O)c1ccc(O)c(NS(C)(=O)=O)c1 (stereo not drawn) [zinterol] | −5.96
CC(C)(C)NCC(O)c1cc(Cl)c(N)c(Cl)c1 (stereo not drawn) [Clenbuterol] | −6.62

Biological target: Human β2-adrenoceptor
Assay: not given
Set-up: method as in PMID 15655528, PMID 20590599
Details: Human β2, given for comparison; ref 25 and 30; cited from earlier work

SMILES | Log KD
C[C@H](Cc1ccc(OCC(=O)O)cc1)NC[C@H](O)c1cccc(Cl)c1 [BRL37344] | −6.51
NC[C@H](O)c1ccc(O)c(O)c1 [Noradrenaline] | −5.41
CC(C)(C)NCC(O)c1ccccc1Cl (stereo not drawn) [Tulobuterol] | −6.83
COc1ccc(OC)c(C(O)C(C)NC(C)(C)C)c1 (stereo not drawn) [Butoxamine] | −6.23
CC(Cc1ccc(O)cc1)NCC(O)c1cc(O)cc(O)c1 (stereo not drawn) [Fenoterol] | −7.03
CNC[C@H](O)c1ccc(O)c(O)c1 [Adrenaline] | −6.13
CC(C)(Cc1c[nH]c2ccccc12)NCC(O)COc1ccccc1C#N (stereo not drawn) [Bucindolol] | −9.99
CC(C)(Cc1ccccc1)NCC(O)c1ccc(O)c(NS(C)(=O)=O)c1 (stereo not drawn) [zinterol] | −8.04
CC(C)(C)NCC(O)c1cc(Cl)c(N)c(Cl)c1 (stereo not drawn) [Clenbuterol] | −7.90

Biological target: Human β3-adrenoceptor
Assay: not given
Details: Human β3, given for comparison; ref 25 and 30; cited from earlier work

SMILES | Log KD
C[C@H](Cc1ccc(OCC(=O)O)cc1)NC[C@H](O)c1cccc(Cl)c1 [BRL37344] | −6.45
NC[C@H](O)c1ccc(O)c(O)c1 [Noradrenaline] | −5.53
COc1ccc(CC(C)NCC(O)c2ccc(O)c(NC=O)c2)cc1 (stereo not drawn) [Formoterol] | −5.82
CC(C)NCC(O)c1ccc(O)c(O)c1 (stereo not drawn) [Isoprenaline] | −5.52
CC(C)(C)NCC(O)c1ccccc1Cl (stereo not drawn) [Tulobuterol] | −4.72
COc1ccc(OC)c(C(O)C(C)NC(C)(C)C)c1 (stereo not drawn) [Butoxamine] | >−4
CC(Cc1ccc(O)cc1)NCC(O)c1cc(O)cc(O)c1 (stereo not drawn) [Fenoterol] | −5.39
CNC[C@H](O)c1ccc(O)c(O)c1 [Adrenaline] | −4.70
CC(C)(Cc1c[nH]c2ccccc12)NCC(O)COc1ccccc1C#N (stereo not drawn) [Bucindolol] | −8.04
CC(CCc1ccc(O)cc1)NCC(O)c1ccc(O)cc1 (stereo not drawn) [Ractopamine] | −5.82
OCc1cc(C(O)CNCCCCCCOCCCCc2ccccc2)ccc1O (stereo not drawn) [Salmeterol] | −6.33
CC(C)(Cc1ccccc1)NCC(O)c1ccc(O)c(NS(C)(=O)=O)c1 (stereo not drawn) [zinterol] | −6.27
CC(C)(C)NCC(O)c1cc(Cl)c(N)c(Cl)c1 (stereo not drawn) [Clenbuterol] | −5.35
